Reference: patent publication US20090220562A1, “Osteogenic and anti-adipogenic oxysterols” (priority 2005, published 2009)

Experiments:
Format in all cases: cell-based, mouse
[1] = test system: lipoprotein lipase (LPL) and adipocyte P2 gene (aP2); assay: Northern blotting for adipogenic genes in troglitazone-treated M2 cells; conditions: 10 μM Tro with 10 μM 20S, 10 days
Method: RNA isolation and Northern blot analysis—Following treatment of cells under appropriate experimental conditions, total RNA was isolated using the RNA isolation kit from Stratagene (La Jolla, Calif., U.S.A.). Total RNA ([…]) was run on a 1% agarose/formaldehyde gel and transferred to Duralon-UV membranes (Strategene, CA, U.S.A.) and cross-linked with UV light. The membranes were hybridized overnight at 60 degree C. with ^32P-labeled mouse osteocalcin cDNA probe, mouse lipoprotein lipase (LPL), mouse adipocyte protein 2 (aP^2) PCR-generated probes, human 28S or 18S rRNA probes obtained from Geneka Biotechnology (Montreal, Quebec, Canada) and Maxim Biotech (San Francisco, Calif., U.S.A.), respectively. […] The extent of gene induction was determined by densitometry.
Test 2: (A) M2 cells at confluence were treated in RPMI containing 10% FBS with control vehicle or 10 μM troglitazone (Tro) in the absence or presence of 10 μM 20S or 22S-hydroxycholesterol. After 10 days, adipocytes were visualized by oil Red O staining and quantified by light microscopy, shown in (B). […] After 10 days, total RNA was isolated and analyzed for lipoprotein lipase (LPL), adipocyte P2 gene (aP2) or 18S rRNA expression by Northern blotting as described (Ref). […]

ERK1 and ERK2 = assay: Western blot for native and phosphorylated ERK in M2 cells; conditions: 5 μM 20S oxysterol for 1, 4, or 8 hours
Method: Western blot analysis—After treatments, cells were lysed in lysis buffer, protein concentrations determined using the Bio-Rad protein assay (Hercules, Calif. U.S.A.), and SDS-PAGE performed as previously described. Probing for native and phosphorylated ERKs was performed as previously reported.
(A) M2 cells at confluence were pretreated for four hours with RPMI containing 1% FBS, followed by treatment with control vehicle or 5 μM 20S oxysterol for 1, 4, or 8 hours. Next total cell extracts were prepared and analyzed for levels of native or phosphorylated ERK (pERK) using specific antibodies as previously described. Data from a representative of four experiments are shown, each treatment shown in duplicate samples. (B) M2 cells at confluence were pretreated for 2 hours with control vehicle (C) or 20 μM PD98059 (PD) in osteogenic medium as previously described. Next, a combination of 22R and 20S oxysterols (RS, 5 μM each) were added to appropriate wells as indicated. After 10 days of incubation, matrix mineralization was quantified by the ^45Ca incorporation assay as previously described. […] (C) M2 cells at confluence were pretreated for 2 hours with 20 µM PD98059 (PD) in RPMI containing 5% FBS. […] After 10 days, adipocytes were visualized by oil Red O staining and quantified by light microscopy as previously described. […]

Runx2 = Runx2 DNA binding and protein expression in M2-10B4 cells; conditions: doses of 5-15 μM
Method: Method: Marrow stromal cells (M2-10B4 (M2)) were treated with doses of 5-15 μM 20S-hydroxycholestrol.
Method: Marrow stromal cells (M2-10B4 (M2)) were treated with doses of 5-15 μM20S-hydroxycholestrol. Groups of cells were pre-treated with 22S or 22R.
Method: Marrow stromal cells (M2-10B4 (M2)) were pretreated with Wnt signaling inhibitor, DKK-1 (1 μg/ml), then treated with 20S-hydroxycholestrol and 22(8)-hydroxycholesterol.

CC(C)CCC[C@](C)(O)[C@H]1CC[C@H]2[C@@H]3CC=C4C[C@@H](O)CC[C@]4(C)[C@H]3CC[C@@]21C [20S-hydroxycholesterol]
expression of adipocyte P2 gene (aP2) [1]: inhibition of the expression
expression of lipoprotein lipase (LPL) [1]: inhibition of the expression
activation of ERK1 and ERK2 (ERK1 and ERK2): sustained activation
Runx2 DNA binding and protein expression (Runx2): induction
